The record followed here is patent US20230279341A1, “NOVEL FAECALIBACTERIUM PRAUSNITZII STRAIN EB-FPDK9 AND USE THEREOF” (ENTEROBIOME INC., priority 2020, published 2023).

≈ marks a conversion by molar mass, not a printed value.

Format in all cases: cell-based
For test [1], the system named is Faecalibacterium prausnitzii DSM 17677^T. The test is described as follows: MIC, liquid medium microdilution method (CLSI), standard strain. Background: Broth dilution looks for growth in wells or tubes with falling amounts of substance.
For test [2], the system named is Faecalibacterium prausnitzii EB-FPDK9 strain. The test is described as follows: MIC, liquid medium microdilution method (CLSI), EB-FPDK9 strain. The note with it: for Resistance or susceptibility of the EB-FPDK9 strain to the antimicrobial agent, in words: text summary of Table 4.
Test [3] relates to Bacteroides thetiotaomicron ATCC 29741. The test is described as follows: MIC, liquid medium microdilution method (CLSI), QC strain.

Regarding `O=C(N[C@H](CO)[C@H](O)c1ccc([N+](=O)[O-])cc1)C(Cl)Cl` [CHL, chloramphenicol], the “Susceptibility class (S/I/R), DSM 17677^T” value in test [1] (CHL breakpoints) is “R (≥32)”. The “Susceptibility class (S/I/R), EB-FPDK9” value in test [2] (CHL breakpoints) was “R (≥32)”. Also, in test [2], the “Resistance or susceptibility of the EB-FPDK9 strain to the antimicrobial agent, in words” value (“Resistance or susceptibility” for short) is “resistance”.

As to `CCC[C@@H]1C[C@@H](C(=O)N[C@@H]([C@H]2O[C@H](SC)[C@H](O)[C@@H](O)[C@H]2O)[C@H](C)Cl)N(C)C1` [CLI, clindamycin], the “Susceptibility class (S/I/R), DSM 17677^T” value in test [1] (CLI breakpoints) is recorded as “S (≤2)”. Besides, the “Susceptibility class (S/I/R), EB-FPDK9” value in test [2] (CLI breakpoints) is “S (≤2)”.

In the case of `CO/N=C(\C(=O)N[C@@H]1C(=O)N2C(C(=O)O)=CCS[C@H]12)c1csc(N)n1` [CTZ, ceftizoxime], the “Susceptibility class (S/I/R), DSM 17677^T” value in test [1] (CTZ breakpoints) is on record as “I (64)”. In addition, in test [2] (CTZ breakpoints), the “Susceptibility class (S/I/R), EB-FPDK9” value is “R (≥128)”. The “Resistance or susceptibility” value in test [2] was “resistance”.

In the case of `C[C@@H](O)[C@H]1C(=O)N2C(C(=O)O)=C(S[C@@H]3CN[C@H](C(=O)N(C)C)C3)[C@H](C)[C@H]12` [MEM, meropenem], the minimum inhibitory concentration (MIC) in test [3] (Bacteroides, ATCC29741, read-out: MIC, QC ATCC 29741) was found to be 0.5 µg/mL (≈ 1.3 µM). Moreover, the “Susceptibility class (S/I/R), DSM 17677^T” value in test [1] (MEM breakpoints) is reported as “R (≥16)”. Besides, in test [2] (MEM breakpoints), the “Susceptibility class (S/I/R), EB-FPDK9” value is reported as “R (≥16)”. In addition, the “Resistance or susceptibility” value in test [2] is “resistance”.

As for `Cc1ncc([N+](=O)[O-])n1CCO` [MTZ, metronidazole], the “Susceptibility class (S/I/R), DSM 17677^T” value in test [1] (MTZ breakpoints) is “S (≤8)”. Besides, the “Susceptibility class (S/I/R), EB-FPDK9” value in test [2] (MTZ breakpoints) was “S (≤8)”. The “Resistance or susceptibility” value in test [2] is reported as “susceptibility”.

Take `COc1c(N2C[C@@H]3CCCN[C@@H]3C2)c(F)cc2c(=O)c(C(=O)O)cn(C3CC3)c12` [MXF, moxifloxacin]: the “Susceptibility class (S/I/R), DSM 17677^T” value in test [1] (MXF breakpoints) is given as “R (≥8)”. The “Susceptibility class (S/I/R), EB-FPDK9” value in test [2] (MXF breakpoints) is on record as “R (≥8)”.

Consider Piperacillin-tazobactam [PTZ], for which the “MIC, QC ATCC 29741” value in test [3] (Bacteroides thetiotaomicron ATCC 29741) is listed as 8/4. Moreover, in test [1] (F. prausnitzii DSM 17677^T), the “MIC, test strain DSM 17677^T” value was 256/4. Also, the “Susceptibility class (S/I/R), DSM 17677^T” value in test [1] (PTZ breakpoints) is recorded as “R (≥128/4)”. Also, in test [2] (F. prausnitzii EB-FPDK9), the “MIC, test strain EB-FPDK9” value is 32/4. Further, the “Susceptibility class (S/I/R), EB-FPDK9” value in test [2] (PTZ breakpoints) is on record as “S (≤32/4)”. Besides, the “Resistance or susceptibility” value in test [2] was “susceptibility”.

A word on the MIC: it is the smallest concentration in the dilution series that meets the test's criterion for growth inhibition.
